Columns and labels:
Assay in all cases: Weeding effect in post-emergence stage
Type in all cases: in vivo
Conditions in all cases: 250 g/ha; 2 leaf stage; 15 days after application; fresh weight control rate
[1] = test system: Abutilon theophrasti
Outline: (§1)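 Activity graded 0 (<5%) to 5 (>85%) from fresh-weight control rate, averaged over three repeats, 15 days after a spray-tower application. Plants at 2-leaf stage (2 weeks post-sowing) received 15–500 g/ha of compound formulated in acetone, Tween 80 and methyl oleate synergist (1.5 L/ha).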

[2] = test system: Amaranthus retroflexus
Outline: as §1

[3] = test system: Digitaria sanguinalis
Outline: as §1

[4] = test system: Echinochloa crusgali
Outline: as §1

[5] = test system: Setaria viridis
Outline: as §1

CCOC[S@+]([O-])c1c(C(F)(F)F)ccc(C(=O)Nc2nnc(C)o2)c1OC [Compound 343]
weeding effect in post-emergence stage, activity level (growth control rate), Abutilon theophrasti [1]: 5 (Level 5: growth control rate is above 85%) | weeding effect in post-emergence stage, activity level (growth control rate), Amaranthus retroflexus [2]: 5 (Level 5: growth control rate is above 85%) | weeding effect in post-emergence stage, activity level (growth control rate), Digitaria sanguinalis [3]: 5 (Level 5: growth control rate is above 85%) | weeding effect in post-emergence stage, activity level (growth control rate), Echinochloa crusgali [4]: 5 (Level 5: growth control rate is above 85%) | weeding effect in post-emergence stage, activity level (growth control rate), Setaria viridis [5]: 5 (Level 5: growth control rate is above 85%)

C#CCC[S@@+]([O-])c1c(C(F)(F)F)ccc(C(=O)Nc2nnc(C)o2)c1OC [Compound 315]
weeding effect in post-emergence stage, activity level (growth control rate), Abutilon theophrasti [1]: 5 (Level 5: growth control rate is above 85%) | weeding effect in post-emergence stage, activity level (growth control rate), Amaranthus retroflexus [2]: 5 (Level 5: growth control rate is above 85%) | weeding effect in post-emergence stage, activity level (growth control rate), Digitaria sanguinalis [3]: 5 (Level 5: growth control rate is above 85%) | weeding effect in post-emergence stage, activity level (growth control rate), Echinochloa crusgali [4]: 5 (Level 5: growth control rate is above 85%) | weeding effect in post-emergence stage, activity level (growth control rate), Setaria viridis [5]: 5 (Level 5: growth control rate is above 85%)

COCCC[S@@+]([O-])c1c(C(F)(F)F)ccc(C(=O)Nc2nnc(C)o2)c1F [Compound 75]
weeding effect in post-emergence stage, activity level (growth control rate), Abutilon theophrasti [1]: 5 (Level 5: growth control rate is above 85%) | weeding effect in post-emergence stage, activity level (growth control rate), Amaranthus retroflexus [2]: 5 (Level 5: growth control rate is above 85%) | weeding effect in post-emergence stage, activity level (growth control rate), Digitaria sanguinalis [3]: 5 (Level 5: growth control rate is above 85%) | weeding effect in post-emergence stage, activity level (growth control rate), Echinochloa crusgali [4]: 5 (Level 5: growth control rate is above 85%) | weeding effect in post-emergence stage, activity level (growth control rate), Setaria viridis [5]: 5 (Level 5: growth control rate is above 85%)

COc1c(C(=O)Nc2nnc(C)o2)ccc(C(F)(F)F)c1[S@+]([O-])CC(F)(F)F [Compound 324]
weeding effect in post-emergence stage, activity level (growth control rate), Abutilon theophrasti [1]: 5 (Level 5: growth control rate is above 85%) | weeding effect in post-emergence stage, activity level (growth control rate), Amaranthus retroflexus [2]: 5 (Level 5: growth control rate is above 85%) | weeding effect in post-emergence stage, activity level (growth control rate), Digitaria sanguinalis [3]: 5 (Level 5: growth control rate is above 85%) | weeding effect in post-emergence stage, activity level (growth control rate), Echinochloa crusgali [4]: 5 (Level 5: growth control rate is above 85%) | weeding effect in post-emergence stage, activity level (growth control rate), Setaria viridis [5]: 5 (Level 5: growth control rate is above 85%)

Cc1nnc(NC(=O)c2ccc(C(F)(F)F)c([S@+]([O-])CC(C)(C)C)c2F)o1 [Compound 11]
weeding effect in post-emergence stage, activity level (growth control rate), Abutilon theophrasti [1]: 5 (Level 5: growth control rate is above 85%) | weeding effect in post-emergence stage, activity level (growth control rate), Amaranthus retroflexus [2]: 5 (Level 5: growth control rate is above 85%) | weeding effect in post-emergence stage, activity level (growth control rate), Digitaria sanguinalis [3]: 5 (Level 5: growth control rate is above 85%) | weeding effect in post-emergence stage, activity level (growth control rate), Echinochloa crusgali [4]: 5 (Level 5: growth control rate is above 85%) | weeding effect in post-emergence stage, activity level (growth control rate), Setaria viridis [5]: 5 (Level 5: growth control rate is above 85%)

Cc1nnc(NC(=O)c2ccc(C(F)(F)F)c([S@+]([O-])CCCO)c2F)o1 [Compound 55]
weeding effect in post-emergence stage, activity level (growth control rate), Abutilon theophrasti [1]: 5 (Level 5: growth control rate is above 85%) | weeding effect in post-emergence stage, activity level (growth control rate), Amaranthus retroflexus [2]: 5 (Level 5: growth control rate is above 85%) | weeding effect in post-emergence stage, activity level (growth control rate), Digitaria sanguinalis [3]: 5 (Level 5: growth control rate is above 85%) | weeding effect in post-emergence stage, activity level (growth control rate), Echinochloa crusgali [4]: 5 (Level 5: growth control rate is above 85%) | weeding effect in post-emergence stage, activity level (growth control rate), Setaria viridis [5]: 5 (Level 5: growth control rate is above 85%)

CSc1c(C(=O)Nc2nnc(C)o2)ccc(C(F)(F)F)c1[S@+]([O-])CCCl [Compound 562]
weeding effect in post-emergence stage, activity level (growth control rate), Abutilon theophrasti [1]: 5 (Level 5: growth control rate is above 85%) | weeding effect in post-emergence stage, activity level (growth control rate), Amaranthus retroflexus [2]: 5 (Level 5: growth control rate is above 85%) | weeding effect in post-emergence stage, activity level (growth control rate), Digitaria sanguinalis [3]: 5 (Level 5: growth control rate is above 85%) | weeding effect in post-emergence stage, activity level (growth control rate), Echinochloa crusgali [4]: 5 (Level 5: growth control rate is above 85%) | weeding effect in post-emergence stage, activity level (growth control rate), Setaria viridis [5]: 5 (Level 5: growth control rate is above 85%)

CC[S@@+]([O-])c1c(C(F)(F)F)ccc(C(=O)Nc2nnco2)c1F [Compound 574]
weeding effect in post-emergence stage, activity level (growth control rate), Abutilon theophrasti [1]: 5 (Level 5: growth control rate is above 85%) | weeding effect in post-emergence stage, activity level (growth control rate), Amaranthus retroflexus [2]: 5 (Level 5: growth control rate is above 85%) | weeding effect in post-emergence stage, activity level (growth control rate), Digitaria sanguinalis [3]: 5 (Level 5: growth control rate is above 85%) | weeding effect in post-emergence stage, activity level (growth control rate), Echinochloa crusgali [4]: 5 (Level 5: growth control rate is above 85%) | weeding effect in post-emergence stage, activity level (growth control rate), Setaria viridis [5]: 5 (Level 5: growth control rate is above 85%)

COc1c(C(=O)Nc2nnc(C)o2)ccc(C(F)(F)F)c1[S@+]([O-])CCCN [Compound 339]
weeding effect in post-emergence stage, activity level (growth control rate), Abutilon theophrasti [1]: 5 (Level 5: growth control rate is above 85%) | weeding effect in post-emergence stage, activity level (growth control rate), Amaranthus retroflexus [2]: 5 (Level 5: growth control rate is above 85%) | weeding effect in post-emergence stage, activity level (growth control rate), Digitaria sanguinalis [3]: 5 (Level 5: growth control rate is above 85%) | weeding effect in post-emergence stage, activity level (growth control rate), Echinochloa crusgali [4]: 5 (Level 5: growth control rate is above 85%) | weeding effect in post-emergence stage, activity level (growth control rate), Setaria viridis [5]: 5 (Level 5: growth control rate is above 85%)

COC[S@+]([O-])c1c(C(F)(F)F)ccc(C(=O)Nc2nnc(C)o2)c1OC [Compound 342]
weeding effect in post-emergence stage, activity level (growth control rate), Abutilon theophrasti [1]: 5 (Level 5: growth control rate is above 85%) | weeding effect in post-emergence stage, activity level (growth control rate), Amaranthus retroflexus [2]: 5 (Level 5: growth control rate is above 85%) | weeding effect in post-emergence stage, activity level (growth control rate), Digitaria sanguinalis [3]: 5 (Level 5: growth control rate is above 85%) | weeding effect in post-emergence stage, activity level (growth control rate), Echinochloa crusgali [4]: 5 (Level 5: growth control rate is above 85%) | weeding effect in post-emergence stage, activity level (growth control rate), Setaria viridis [5]: 5 (Level 5: growth control rate is above 85%)

CCC[S@@+]([O-])c1c(C(F)(F)F)ccc(C(=O)Nc2nnc(CC)o2)c1F [Compound 358]
weeding effect in post-emergence stage, activity level (growth control rate), Abutilon theophrasti [1]: 5 (Level 5: growth control rate is above 85%) | weeding effect in post-emergence stage, activity level (growth control rate), Amaranthus retroflexus [2]: 5 (Level 5: growth control rate is above 85%) | weeding effect in post-emergence stage, activity level (growth control rate), Digitaria sanguinalis [3]: 5 (Level 5: growth control rate is above 85%) | weeding effect in post-emergence stage, activity level (growth control rate), Echinochloa crusgali [4]: 5 (Level 5: growth control rate is above 85%) | weeding effect in post-emergence stage, activity level (growth control rate), Setaria viridis [5]: 5 (Level 5: growth control rate is above 85%)

COCC[S@@+]([O-])c1c(C(F)(F)F)ccc(C(=O)Nc2nnc(C)o2)c1SC [Compound 565]
weeding effect in post-emergence stage, activity level (growth control rate), Abutilon theophrasti [1]: 5 (Level 5: growth control rate is above 85%) | weeding effect in post-emergence stage, activity level (growth control rate), Amaranthus retroflexus [2]: 5 (Level 5: growth control rate is above 85%) | weeding effect in post-emergence stage, activity level (growth control rate), Digitaria sanguinalis [3]: 5 (Level 5: growth control rate is above 85%) | weeding effect in post-emergence stage, activity level (growth control rate), Echinochloa crusgali [4]: 5 (Level 5: growth control rate is above 85%) | weeding effect in post-emergence stage, activity level (growth control rate), Setaria viridis [5]: 5 (Level 5: growth control rate is above 85%)

COCC[S@@+]([O-])c1c(C(F)(F)F)ccc(C(=O)Nc2nnc(C)o2)c1OC [Compound 344]
weeding effect in post-emergence stage, activity level (growth control rate), Abutilon theophrasti [1]: 5 (Level 5: growth control rate is above 85%) | weeding effect in post-emergence stage, activity level (growth control rate), Amaranthus retroflexus [2]: 5 (Level 5: growth control rate is above 85%) | weeding effect in post-emergence stage, activity level (growth control rate), Digitaria sanguinalis [3]: 5 (Level 5: growth control rate is above 85%) | weeding effect in post-emergence stage, activity level (growth control rate), Echinochloa crusgali [4]: 5 (Level 5: growth control rate is above 85%) | weeding effect in post-emergence stage, activity level (growth control rate), Setaria viridis [5]: 5 (Level 5: growth control rate is above 85%)

CCc1nnc(NC(=O)c2ccc(C(F)(F)F)c([S@+]([O-])CC)c2OC)o1 [Compound 424]
weeding effect in post-emergence stage, activity level (growth control rate), Abutilon theophrasti [1]: 5 (Level 5: growth control rate is above 85%) | weeding effect in post-emergence stage, activity level (growth control rate), Amaranthus retroflexus [2]: 5 (Level 5: growth control rate is above 85%) | weeding effect in post-emergence stage, activity level (growth control rate), Digitaria sanguinalis [3]: 5 (Level 5: growth control rate is above 85%) | weeding effect in post-emergence stage, activity level (growth control rate), Echinochloa crusgali [4]: 5 (Level 5: growth control rate is above 85%) | weeding effect in post-emergence stage, activity level (growth control rate), Setaria viridis [5]: 5 (Level 5: growth control rate is above 85%)

C#CC[S@@+]([O-])c1c(C(F)(F)F)ccc(C(=O)Nc2nnc(C)o2)c1SC [Compound 553]
weeding effect in post-emergence stage, activity level (growth control rate), Abutilon theophrasti [1]: 5 (Level 5: growth control rate is above 85%) | weeding effect in post-emergence stage, activity level (growth control rate), Amaranthus retroflexus [2]: 5 (Level 5: growth control rate is above 85%) | weeding effect in post-emergence stage, activity level (growth control rate), Digitaria sanguinalis [3]: 5 (Level 5: growth control rate is above 85%) | weeding effect in post-emergence stage, activity level (growth control rate), Echinochloa crusgali [4]: 5 (Level 5: growth control rate is above 85%) | weeding effect in post-emergence stage, activity level (growth control rate), Setaria viridis [5]: 5 (Level 5: growth control rate is above 85%)

CC=CC[S+]([O-])c1c(C(F)(F)F)ccc(C(=O)Nc2nnc(C)o2)c1OC (centres unmarked) [Compound 313]
weeding effect in post-emergence stage, activity level (growth control rate), Abutilon theophrasti [1]: 5 (Level 5: growth control rate is above 85%) | weeding effect in post-emergence stage, activity level (growth control rate), Amaranthus retroflexus [2]: 5 (Level 5: growth control rate is above 85%) | weeding effect in post-emergence stage, activity level (growth control rate), Digitaria sanguinalis [3]: 5 (Level 5: growth control rate is above 85%) | weeding effect in post-emergence stage, activity level (growth control rate), Echinochloa crusgali [4]: 5 (Level 5: growth control rate is above 85%) | weeding effect in post-emergence stage, activity level (growth control rate), Setaria viridis [5]: 5 (Level 5: growth control rate is above 85%)

Reference: patent publication US12643871B2, “Aryl formamide compound containing chiral sulfur oxide or salt thereof, preparation method, herbicidal composition and use thereof” (Qingdao Kingagroot Chemical Compound Co., Ltd., priority 2019, dated 2026)
